Experimental data: PubChem BioAssay (NCI)
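The compound was tested at five concentrations on cells cultured in 96-well plates, with a 48-hour exposure period. Definition used: TGI = concentration required for complete inhibition of growth.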

Experiments:
Assay in all cases: NCI tumour cell line growth inhibition, 48 h
HOP-92 NSCLC = tested on: HOP-92 NSCLC
SK-OV-3 ovarian = tested on: SK-OV-3 ovarian
NCI-H460 lung = tested on: NCI-H460 lung
OVCAR-4 ovarian = tested on: OVCAR-4 ovarian
SF-295 CNS = tested on: SF-295 CNS
IGROV1 ovarian = tested on: IGROV1 ovarian
MALME-3M melanoma = tested on: MALME-3M melanoma
ACHN renal = tested on: ACHN renal
SNB-19 CNS = tested on: SNB-19 CNS
OVCAR-3 ovarian = tested on: OVCAR-3 ovarian
CCRF-CEM leukemia = tested on: CCRF-CEM leukemia
NCI-H226 lung = tested on: NCI-H226 lung
NCI/ADR-RES ovarian = tested on: NCI/ADR-RES ovarian
NCI-H522 lung = tested on: NCI-H522 lung
LOX IMVI melanoma = tested on: LOX IMVI melanoma
MOLT-4 leukemia = tested on: MOLT-4 leukemia
UACC-257 melanoma = tested on: UACC-257 melanoma
NCI-H23 lung = tested on: NCI-H23 lung
UACC-62 melanoma = tested on: UACC-62 melanoma

Compound | TGI (HOP-92 NSCLC) [µM] | TGI (SK-OV-3 ovarian) [µM] | TGI (NCI-H460 lung) [µM] | TGI (OVCAR-4 ovarian) [µM] | TGI (SF-295 CNS) [µM] | TGI (IGROV1 ovarian) [µM] | TGI (MALME-3M melanoma) [µM] | TGI (ACHN renal) [µM] | TGI (SNB-19 CNS) [µM] | TGI (OVCAR-3 ovarian) [µM] | TGI (CCRF-CEM leukemia) [µM] | TGI (NCI-H226 lung) [µM] | TGI (NCI/ADR-RES ovarian) [µM] | TGI (NCI-H522 lung) [µM] | TGI (LOX IMVI melanoma) [µM] | TGI (MOLT-4 leukemia) [µM] | TGI (UACC-257 melanoma) [µM] | TGI (NCI-H23 lung) [µM] | TGI (UACC-62 melanoma) [µM]
CC(=O)Nc1ccc(N=C2C(c3ccccc3)=C(SC3=C(c4ccccc4)C(=Nc4ccc(NC(C)=O)cc4)c4ccccc43)c3ccccc32)cc1 | > 100 | > 100 | > 100 | > 100 | > 100 | > 100 | > 100 | > 100 | > 100 | > 100 | > 100 | > 100 | 72.9 | 97.7 | > 100 | 63 | > 100 | 99.8 | –
CC1=NNC(=O)C1C1CC(c2c[nH]c3ccccc23)=NNC1=S (configuration not stated) | > 100 | > 100 | > 100 | – | > 100 | – | > 100 | > 100 | > 100 | > 100 | > 100 | > 100 | > 100 | > 100 | – | > 100 | > 100 | > 100 | > 100
O=C(Nc1nc(C23CC4CC(CC(C4)C2)C3)cs1)c1c(O)c2ccccc2[nH]c1=O | > 100 | – | > 100 | > 100 | > 100 | > 100 | > 100 | > 100 | > 100 | > 100 | > 100 | > 100 | > 100 | > 100 | > 100 | > 100 | > 100 | > 100 | –
COC(=O)[C@@H]1C=C[C@H](OC2OC(COC(C)=O)C(OC(C)=O)C(OC(C)=O)C2OC(C)=O)n2c(=O)c3ccccc3c(=O)n21 (some centres not stated) | 23.7 | 28.2 | 29 | 34.6 | 53.9 | 33.3 | 39.6 | 24.1 | 47.2 | 22.2 | 24.9 | 46.3 | 56.7 | 3.28 | 29.5 | 41.1 | 51.2 | 39.9 | 23
C#CCn1ncc2c(SC)ncnc21 | > 100 | > 100 | > 100 | > 100 | > 100 | > 100 | > 100 | > 100 | > 100 | > 100 | > 100 | > 100 | > 100 | > 100 | > 100 | > 100 | > 100 | > 100 | > 100
O=[N+]([O-])c1ccc2[nH]nc(OCc3ccccn3)c2c1 | > 100 | > 100 | > 100 | > 100 | > 100 | > 100 | > 100 | > 100 | > 100 | > 100 | > 100 | > 100 | > 100 | > 100 | > 100 | > 100 | > 100 | > 100 | > 100
C/C(=C\c1ccccc1)C(=O)NCc1ccc(C(=O)NCCC(C)C)cc1 | > 100 | 94.6 | > 100 | > 100 | > 100 | > 100 | > 100 | > 100 | > 100 | > 100 | > 100 | > 100 | > 100 | > 100 | > 100 | > 100 | > 100 | > 100 | > 100
CC(=O)N1CN2C(=O)CCC2c2ccccc21 (configuration not stated) | > 100 | > 100 | > 100 | > 100 | > 100 | > 100 | > 100 | > 100 | > 100 | > 100 | > 100 | > 100 | > 100 | > 100 | > 100 | > 100 | > 100 | > 100 | > 100
N#CC1Cc2cc3c(cc21)OCO3 (configuration not stated) | > 100 | – | > 100 | > 100 | > 100 | > 100 | > 100 | > 100 | > 100 | > 100 | > 100 | > 100 | > 100 | – | > 100 | > 100 | > 100 | > 100 | > 100
C1=Nc2ccc(cc2)N=Cc2ccc(cc2)OCc2cccc(n2)COc2ccc1cc2 | > 100 | > 100 | > 100 | > 100 | > 100 | > 100 | > 100 | > 100 | > 100 | > 100 | > 100 | > 100 | > 100 | > 100 | – | > 100 | > 100 | > 100 | > 100
N#CC(c1nc2ccccc2s1)c1ncnc(Cl)c1[N+](=O)[O-] (configuration not stated) | 42.8 | > 100 | 47.1 | > 100 | > 100 | 30.5 | 41.8 | > 100 | > 100 | 47.8 | > 100 | 83.3 | 44.3 | 33.5 | 33.1 | > 100 | 41 | 32.7 | –
S=c1nc(Cc2ccc(Cl)cc2)[nH][nH]1 | 85.7 | > 100 | > 100 | > 100 | > 100 | > 100 | > 100 | > 100 | > 100 | > 100 | > 100 | > 100 | > 100 | – | > 100 | > 100 | > 100 | > 100 | > 100
CCCN1CC=C(c2cc(C(=O)OCC)[nH]c2-c2cc(C)no2)C1=O | > 100 | > 100 | > 100 | > 100 | > 100 | > 100 | > 100 | – | > 100 | > 100 | > 100 | > 100 | > 100 | – | > 100 | > 100 | > 100 | > 100 | > 100
Cc1n[nH]c(=O)n1C1CCCC1 | > 100 | – | > 100 | > 100 | > 100 | > 100 | > 100 | > 100 | > 100 | > 100 | > 100 | > 100 | > 100 | > 100 | > 100 | > 100 | > 100 | > 100 | –
O=C(C=P(c1ccccc1)(c1ccccc1)c1ccccc1)c1cccc(-c2cccc([N+](=O)[O-])c2)c1 | 5.77 | 51.2 | > 100 | 15.5 | 35.3 | 38.4 | 9.28 | 15.7 | > 100 | > 100 | 7.63 | – | > 100 | 4.4 | 9.63 | 5.37 | – | 26.4 | –
CC(C)c1nc2cc(C(F)(F)F)ccc2[nH]c1=O | > 100 | > 100 | > 100 | > 100 | > 100 | > 100 | > 100 | > 100 | > 100 | > 100 | > 100 | > 100 | > 100 | > 100 | – | > 100 | > 100 | > 100 | > 100
COP(=O)(Cc1ccc(/C=C/C#N)o1)OC | > 100 | > 100 | > 100 | > 100 | – | > 100 | > 100 | – | > 100 | > 100 | > 100 | > 100 | > 100 | > 100 | – | > 100 | – | > 100 | > 100
CC(C)C[C@H](NC(=O)[C@H](Cc1ccccc1)NC(=O)CCc1ccccc1)B(O)O | < 0.01 | 0.0727 | < 0.0104 | < 0.01 | < 0.01 | < 0.01 | < 0.01 | < 0.01 | 1.08 | < 0.01 | > 100 | < 0.01 | 1.82 | < 0.01 | < 0.01 | 0.665 | < 0.01 | < 0.01 | –
COC(=O)c1cc2c3c(cc(N(C)C)c2[nH]1)N(C(=O)c1cc2cc(OC)c(OC)c(OC)c2[nH]1)CC3CCl (configuration not stated) | 0.756 | 0.101 | 0.323 | 0.00605 | 0.226 | – | < 0.0025 | – | 0.0814 | 0.0136 | 0.0538 | 0.0223 | 0.0548 | 0.0113 | – | 0.318 | – | – | 0.0565
COc1cc2c(c(O)c1OC)C(O)C1CCC(=O)N1C2c1cccc2ccccc12 (configuration not stated) | > 100 | > 100 | > 100 | > 100 | > 100 | > 100 | > 100 | > 100 | > 100 | > 100 | > 100 | > 100 | > 100 | > 100 | – | > 100 | > 100 | > 100 | > 100
O=C1N(c2ccccc2)C2(c3ccccc3)CC3CCCC13S2 (configuration not stated) | > 100 | > 100 | – | > 100 | > 100 | > 100 | > 100 | > 100 | > 100 | > 100 | > 100 | > 100 | > 100 | 75.7 | > 100 | > 100 | 51.1 | > 100 | > 100
OC1(c2ccc(Cl)cc2)c2c(ccc3c2OCO3)C2=NCCN21 (configuration not stated) | 73.5 | > 100 | > 100 | > 100 | > 100 | 54.9 | 21.2 | > 100 | > 100 | > 100 | > 100 | – | > 100 | – | > 100 | > 100 | 37.2 | > 100 | 37
Cc1ccc(Cc2n[nH]c(=O)n2/N=C\CC/C=N\n2c(Cc3ccc(C)cc3)n[nH]c2=O)cc1 | 76.1 | > 100 | – | > 100 | > 100 | > 100 | > 100 | > 100 | > 100 | > 100 | > 100 | 65.3 | 49.9 | > 100 | > 100 | > 100 | > 100 | 84.6 | > 100
COc1ccc(N(CN2C(=O)CCC2C(=O)O)C(C)=O)cc1 (configuration not stated) | > 100 | > 100 | > 100 | > 100 | > 100 | – | > 100 | > 100 | > 100 | > 100 | > 100 | > 100 | > 100 | > 100 | > 100 | > 100 | > 100 | > 100 | > 100
CN(C)c1ccc(/C=C(\NC(=O)c2ccccc2)C(=O)NCC(=O)O)cc1 | > 100 | > 100 | > 100 | – | > 100 | > 100 | > 100 | > 100 | > 100 | > 100 | > 100 | > 100 | > 100 | > 100 | > 100 | > 100 | > 100 | > 100 | > 100
O=c1[nH]cnc2c1sc1nc3ccccc3n12 | > 100 | > 100 | – | > 100 | > 100 | > 100 | > 100 | > 100 | > 100 | > 100 | > 100 | > 100 | > 100 | > 100 | > 100 | > 100 | > 100 | > 100 | > 100
